pEC50, pIC50: −log10 of the molar value. Like-named read-outs stand apart in the source and are kept apart here.
Legend:
[1] = system: platelet-rich plasma (PRP); experiment: Platelet aggregation in platelet-rich plasma (aggregometer, light transmittance); assay type: cell-based; settings: for pIC50: Homo sapiens, Platelet, 10 min, 10 min incubation
Method: Platelet aggregation experiments were performed on platelet-rich plasma (PRP) prepared from blood of healthy human subjects, who had not taken cyclooxygenase inhibitors (acetylsalicylic acid, non-steroidal antiinflammatory agents) for at least two weeks. Blood was collected in test tubes containing a 3.2 % sodium citrate solution (1/10 of blood volume) and immediately centrifuged at 150 x g for 15 minutes. Samples of PRP were further centrifuged at 12,000 x g in order to obtain platelet-poor plasma (PPP), used for calibration of light transmittance of the double-channel aggregometer, fixing the transmittance of PRP as 10 % and that of PPP as 90 %. Platelet aggregation in PRP of each subject was tested measuring the percent increase in transmittance under the addition of increasing amounts of sodium arachidonate, in concentrations in the range from 300 to 900 µM, or of collagen, in concentrations in the range from 0.5 to 2.5 µg/ml, or of U-46619, in concentrations in the range from 0.2 to 1.6 µM. […] In this way the threshold concentration, i.e., the concentration inducing a submaximal irreversible aggregation was assessed in each subject with the three agents.
PRP samples of subjects not responding to the maximal concentrations were discarded.

[2] = system: thromboxane synthesis; experiment: Thromboxane synthesis in clotting blood (serum TxB2 by radioimmunoassay); assay type: cell-based; settings: human blood clotted 60 min at 37°C
Method: Test compounds were added in a series of concentrations ranging from 10^-7 M to 10^-3 M to samples of blood from healthy human subjects, who had not taken cyclooxygenase inhibitors (acetylsalicylic acid, non-steroidal antiinflammatory agents) for at least two weeks. The blood samples were allowed to clot for 60 min in a bath at 37°C, and then centrifuged at 2500 x g for 10 min. The serum was separated and kept frozen at -20°C for the determination of TxB2 by radioimmunoassay. TxB2 is the stable metabolite into which thromboxane A2 is rapidly converted.

[3] = system: transcellular synthesis of prostacyclin; experiment: Transcellular prostacyclin synthesis: PRP layered on acetylsalicylic acid-pretreated endothelial cells (6-keto-prostaglandin F1α by radioimmunoassay); assay type: cell-based, bovine
Method: The effects on the transcellular synthesis of prostacyclin from endoperoxides generated in platelets were assessed by layering platelet rich plasma (PRP), obtained from healthy human subjects as described above, on cultured bovine endothelial cells (5 x 10^5 cells/well). The endothelial cells were pretreated with acetylsalicylic acid (10^-4 M) in order to inhibit the direct synthesis of endoperoxides, and washed twice with Dulbecco's phosphate buffered saline. Then to individual samples of endothelial cells there were added at 37°C while shaking on an oscillating platform, 0.5 ml of PRP samples pretreated with the test compounds in various concentrations, ranging from 10^-7 M to 10 ^-3 M. Collagen (0.5 µg/ml) was then added to each sample. After 2 minutes of contact at 37°C, PRP was removed and centrifuged at 12,000 x g, and the supernatant was frozen and kept at -20°C for the determination of 6-keto-prostaglandin F1α by radioimmunoassay.
6-Keto-prostaglandin F1α is a stable metabolite into which prostacyclin is rapidly converted.

[4] = system: rabbit aortae; experiment: Vascular relaxation of precontracted aortic rings in vitro; assay type: cell-based; settings: for pEC50: Oryctolagus cuniculus, read-out: calculated EC50
Method: The ability to induce vascular relaxation by acting as a donor of nitric oxide was tested in vitro on rabbit aortae. Rings of aortae were suspended in a Krebs-Henseleit solution at 37°C, submitted to a 1 g tension and connected to a force transducer.

[5] = human PRP on acetylsalicylic acid-treated bovine endothelial cells, collagen 0.5 µg/ml
[6] = rabbit aortic rings contracted with norepinephrine (10^-6 M)

SMILES	pIC50 ([1]; aggregation induced by U-46619 (threshold concentration))	pIC50 ([1]; aggregation induced by arachidonic acid (threshold concentration))	pIC50 ([1]; aggregation induced by collagen (threshold concentration))	pIC50 ([2]; 1 h, read-out: IC50 (inhibit thromboxane synthesis))	concentration from which production of the prostacyclin metabolite was increased [3, 5]	production of the prostacyclin metabolite (effect in words) [3, 5]	production of the prostacyclin metabolite (6-keto-prostaglandin F1α), level reached ([3]; human PRP on acetylsalicylic acid-treated bovine endothelial cells, collagen 0.5 µg/ml, up to) [pg/mL]	level times higher of the amount produced in basal conditions by endothelial cells not submitted to cyclooxygenase inhibition ([3]; relative to basal production of untreated endothelial cells)	pEC50 ([4]; norepinephrine-contracted rabbit aortic rings, methylene blue 10^-5 M in the bath)	pEC50 [4, 6]	relaxation in aortic rings ([4]; aortic rings contracted with 5-hydroxytryptamine)	relaxation in aortic rings ([4]; aortic rings contracted with U-46619)	concentration inducing a complete relaxation of the aortic ring [4, 6]	effect on thromboxane synthesis [2]	inhibitory activity in the aggregation induced by collagen ([1]; human PRP, up to 10^-3 M concentrations)
COc1ccc(C(=O)N[C@H]2CC[C@H](O[N+](=O)[O-])CC2)cc1C(=O)NCc1cccnc1 [4-methoxy-N^1-(4-trans-nitrooxycyclohexyl)-N^3-(3-pyridinylmethyl)-1,3-benzenedicarboxamide]	4.48	4.92	4.66	4.74	10^-6 M	markedly increased	800 to 1600	8-16 times	4.26	5.49	similarly able to produce relaxation	similarly able to produce relaxation	10^-4 M	–	–
O=C(O)Cc1ccc(CCNS(=O)(=O)c2ccc(Cl)cc2)cc1 [daltroban, p-[2-(p-chlorobenzenesulfonamido)ethyl]phenylacetic, reference compound]	–	–	–	–	–	did not stimulate the synthesis of prostacyclin	–	–	–	–	–	–	–	did not show any effect	–
O=C(O)/C=C/c1ccc(Cn2ccnc2)cc1 [ozagrel, (E)-3-[4-(1H-imidazol-1-ylmethyl)-phenyl]-2-propenoic acid, reference compound]	–	–	–	–	–	–	–	–	–	–	–	–	–	–	did not show any significant inhibitory activity

From EP1270558B1, “"Compound for the treatment of atherosclerotic-thrombotic pathological conditions"” (Casagrande, Cesare, priority 2001, dated 2003)
